From US5725838A, “Radiolabeled D4 receptor ligands” (Resolution Pharmaceuticals, Inc., priority 1996, dated 1998)

Columns and labels:
[1] = biological target: T1, human D4 receptor (D4.2 sub-type) (Homo sapiens, UniProt P21917, DEL265-296); assay: D4 receptor binding, 3H-spiperone displacement; details: membranes of cells stably transfected with human D4.2; 0.25 nM 3H-spiperone; Cheng-Prusoff
T1 construct: expressed in transfected cells; host or cells: HEK 298 (so in the source); probably HEK 293), stably transfected, membrane preparation
T1 sequence (P21917 with tags, fused parts or gaps DEL265-296): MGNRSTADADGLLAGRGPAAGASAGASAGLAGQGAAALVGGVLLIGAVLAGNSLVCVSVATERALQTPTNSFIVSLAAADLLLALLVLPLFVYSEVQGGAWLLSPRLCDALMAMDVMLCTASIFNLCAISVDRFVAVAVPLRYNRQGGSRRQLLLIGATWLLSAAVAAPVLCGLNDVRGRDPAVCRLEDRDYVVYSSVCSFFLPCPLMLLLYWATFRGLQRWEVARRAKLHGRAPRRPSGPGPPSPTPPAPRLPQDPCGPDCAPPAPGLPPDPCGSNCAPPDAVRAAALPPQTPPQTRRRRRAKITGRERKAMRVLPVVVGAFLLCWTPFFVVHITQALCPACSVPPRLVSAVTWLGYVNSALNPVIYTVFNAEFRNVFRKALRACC
Procedure: The potency of the test compound to reduce ^3 H-spiperone binding directly correlated to its binding affinity for the receptor.
Individual filter disks were put in scintillation vials (Biovials, Bechman).
Ki was calculated by the Cheng and Prustoff transformation: […]
where [L] is the concentration of ^3 H-spiperone used in the assay and KD is the dissociation constant of ^3 H-spiperone determined independently under the same binding conditions.

[2] = biological target: T2, human D2 receptor (short isoform) (Homo sapiens, UniProt P14416); assay: D2 receptor binding, 3H-spiperone displacement; details: membranes of GH4 C1 (rat pituitary) cells stably transfected with human D2 short isoform; 0.25 nM 3H-spiperone; Cheng-Prusoff
T2 construct: expressed in transfected cells; host or cells: GH4 C1 (rat pituitary) cells, stably transfected, membrane preparation
Procedure: D2 and D4 receptor-binding affinities of the compounds of Example 3 were evaluated as described in WO95/17400 (incorporated herein by reference) for their ability to reduce binding of ^3 H-spiperone as compared to the reference compound clozapine. The potency of the test compound to reduce ^3 H-spiperone binding directly correlated to its binding affinity for the receptor.
Briefly, the D4 receptor was utilized in the form of membrane preparations obtained from […] cells stably transfected with human D4 receptor (D4.2 sub-type). […] Ready Protein Plus liquid scintillant (5 ml, Beckman) was added and the vials counted by liquid scintillation spectrophotometry (Beckman LSC 6500) after equilibrating for three hours at room temperature to determine total binding (Br).
Non-specific binding for D4 was assayed by incubating membrane homogenate, ^3 H-spiperone and fresh dopamine. Filtrate was counted using the same procedure as in the total binding assay described above to give the non-specific binding value (NSB). Non-specific binding for D2 was similarly assessed, with the exception that (-)-sulpiride was used in place of dopamine.
To assess displacement, membrane homogenate was incubated with ^3 H-spiperone and test compound dissolved in DMSO. Filtrate was counted using the same procedure as in the total binding assay described above, to give the displacement binding value (BD). […]

T2 sequence (P14416 1-414 isoform P14416-2): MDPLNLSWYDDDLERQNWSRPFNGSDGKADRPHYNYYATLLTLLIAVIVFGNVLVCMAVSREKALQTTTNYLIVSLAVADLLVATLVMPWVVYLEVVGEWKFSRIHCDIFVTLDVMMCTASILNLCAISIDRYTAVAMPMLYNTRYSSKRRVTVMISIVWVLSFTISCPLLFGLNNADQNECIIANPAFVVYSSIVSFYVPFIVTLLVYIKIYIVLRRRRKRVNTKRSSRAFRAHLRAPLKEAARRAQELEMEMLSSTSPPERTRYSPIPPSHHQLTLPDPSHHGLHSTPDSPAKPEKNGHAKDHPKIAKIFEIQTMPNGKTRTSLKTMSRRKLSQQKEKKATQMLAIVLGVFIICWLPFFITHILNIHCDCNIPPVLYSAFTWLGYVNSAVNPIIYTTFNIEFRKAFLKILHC

Ki [1]: 0.16 nM | Ki [2]: 2370 nM
SMILES: Ic1ccc(N2CCN(Cc3c[nH]c4ncccc34)CC2)cc1 [3-[4-(4-iodophenyl)-piperazin-1-yl]methyl-1H-pyrrolo[2,3-b]pyridine]
